The results in this text go back to patent publication US20110135583A1, “Anionic Isosorbide Derivatives and Their Use (II)” (COGNIS IP […], priority 2009, published 2011).

This data set can be described thus: Foam quality and foam volume test of the isosorbide sulfosuccinate. It is filed as physicochemical. Conditions: 2.5% active substance in water, stirred to foam under standard conditions. As to the method:
The foam quality and foam volume of this surfactant was tested as follows:
The isosorbide sulfosuccinate is dissolved in water at a rate of 2.5% active substance, and stirred to foam under standard conditions. According to a visual evaluation the surfactant of Example 1 has a foam quality of 4-5 on a scale of 1 (small bubbles, high cushion, stable foam) to 5 (large bubbles, unstable foam), and a foam volume equal to 32% of the foam for a standard surfactant (see FIG. 1).

As for “Isosorbide Lauroylester Sulfosuccinate [Example 1]”, the foam volume is on record as 32 % of the foam for a standard surfactant. Moreover, the foam quality (visual evaluation, scale of 1 (small bubbles, high cushion, stable foam) to 5 (large bubbles, unstable foam)) is recorded as 4-5.
